Experimental findings from BindingDB's records for doi:10.1021/ml400370w (The Scripps Research Institute, 2014) are described below.

A value given as a limit tells only on which side of the number the result lay.

The experiment is described as follows: Antagonist activity against CCR5 receptor in human TZM-bl cells assessed as inhibition of HIV-1 JR-FL-induced cell-cell fusion between viral envelope protein expressing human HEK293 cells to TZM-bl cells after 48 hrs by luciferase reporter gene assay.
`Cc1nnc(CCCCCCCCCCn2cc(COCCOCCOCCOCCOCc3ccc(C(=O)NCCCNC(=O)OC(C)(C)C)cc3)nn2)n1C1CC2CCC(C1)N2CC[C@H](NC(=O)C1CCC(F)(F)CC1)c1ccccc1` (stereo partly specified): the half-maximal inhibitory concentration (IC50) stood at 3 nM.

As to `Cc1nnc(CCCCCCCCCCn2cc(COCCOCCOCCOCCOCc3ccc(C(=O)N4CCC4=O)cc3)nn2)n1C1CC2CCC(C1)N2CC[C@H](NC(=O)C1CCC(F)(F)CC1)c1ccccc1` (stereo partly specified), the half-inhibitory concentration (IC50) amounted to 2.6 nM.

Consider `Cc1nnc(C(C)C)n1C1CC2CCC(C1)N2CC[C@H](NC(=O)CCCCCCCCCCn1cc(COCCOCCOCCOCCOCc2ccc(C(=O)N3CCC3=O)cc2)nn1)c1ccccc1` (stereo partly specified), for which the IC50 was 27 nM. In the case of `Cc1nnc(CCCCCCCCCCN=[N+]=[N-])n1C1CC2CCC(C1)N2CC[C@H](NC(=O)C1CCC(F)(F)CC1)c1ccccc1` (stereo partly specified), the half-inhibitory concentration (IC50) is 0.96 nM. The figure for `Cc1nnc(C(C)C)n1C1CC2CCC(C1)N2CC[C@H](NC(=O)COCCOCCOCCN=[N+]=[N-])c1ccccc1` (stereo partly specified) is > 1000 nM; for `Cc1nnc(C(C)C)n1C1CC2CCC(C1)N2CC[C@H](NC(=O)CCCCCCCCCCN=[N+]=[N-])c1ccccc1` (stereo partly specified) it is 360 nM.

A word on the IC50: it is the concentration that inhibits the measured activity by half.
